Source: patent US20090047246A1, “NOVEL INHIBITORS OF HEPATITIS C VIRUS REPLICATION” (InterMune, Inc., priority 2007, published 2009)

Key:
HCV NS3/4a protease = HCV NS3/4a protease activity, effect of additives on reaction rate (Assay Example 1); assay type: biochemical, HCV genotype 1b-K2040; settings: base buffer 50 mM Tris-HCl pH 7.5, 15% glycerol; for Conclusion (effect of additive on NS3/4a protease reaction rate): 0.5 μM FRET substrate, additive at the concentrations tested
Experimental: In order to identify reaction conditions that give high levels of HCV NS3/4a protease activity, several additives were analyzed to determine their effect on reaction rate. The base buffer used was 50 mM Tris-HCl, pH 7.5 containing 15% glycerol. The FRET-based assay substrate used (sequence: Ac-DE-Dap(QXL520)-EE-Abu-ψ-[COO]-AS-Cys(5-FAMsp)-NH2) was obtained from Anaspec, Inc. (San Jose, Calif.). The NS4a surrogate peptide used (KGSVVIVGRIILSGRK) was obtained from Midwest Biotech (Fishers, Ind.). The NS3 enzyme used was the benchmark wild-type full length enzyme derived from HCV genotype 1b-K2040. The reaction rate for the NS3 catalyzed hydrolysis of 0.5 μM substrate in base buffer was used as a reference.

NS4a surrogate peptide = test system: T1, NS4a surrogate peptide
T1 sequence: KGSVVIVGRIILSGRK

NS3 Helicase = NS3 Helicase (Hepatitis C virus genotype 1b, UniProt P26663); experiment: Activity of NS3 Helicase in Presence of Detergent with or without LDAO (Table A); assay type: biochemical
Sequence of NS3 Helicase (P26663 1027-1657): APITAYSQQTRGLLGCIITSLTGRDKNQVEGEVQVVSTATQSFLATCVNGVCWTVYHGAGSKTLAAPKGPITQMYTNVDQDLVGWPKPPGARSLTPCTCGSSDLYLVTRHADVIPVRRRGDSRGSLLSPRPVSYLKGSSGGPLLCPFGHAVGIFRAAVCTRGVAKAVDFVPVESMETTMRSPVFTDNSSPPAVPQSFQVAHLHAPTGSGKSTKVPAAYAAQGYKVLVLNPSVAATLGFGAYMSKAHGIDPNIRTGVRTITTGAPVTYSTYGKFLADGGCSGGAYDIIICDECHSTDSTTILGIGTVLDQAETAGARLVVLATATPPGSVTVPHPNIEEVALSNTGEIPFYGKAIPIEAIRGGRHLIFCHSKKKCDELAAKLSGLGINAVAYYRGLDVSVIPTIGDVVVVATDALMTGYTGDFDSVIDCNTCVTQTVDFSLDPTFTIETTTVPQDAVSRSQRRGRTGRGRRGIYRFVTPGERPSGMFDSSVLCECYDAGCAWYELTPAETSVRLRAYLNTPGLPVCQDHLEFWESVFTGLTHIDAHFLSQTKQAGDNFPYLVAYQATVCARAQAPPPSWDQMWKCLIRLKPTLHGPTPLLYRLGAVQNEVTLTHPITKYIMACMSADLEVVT
Experimental: In another embodiment, at least one detergent is added to a solution containing NS3 to improve the helicase activity. In some embodiments, the detergent is selected from the group consisting of LDAO, Tween 20, Triton X100, Pluronic F127, CHAPS, β-octyl glucoside, laurylmaltoside, N-lauroylsarcosine, and hexadecyltrimethylammonium bromide. In a preferred embodiment, LDAO is added. In a more preferred embodiment, at least one additional detergent in added to the solution containing NS3 and LDAO. In some embodiments, the additional detergent(s) is/are selected from the group consisting of Tween 20, Triton X100, Pluronic F127, CHAPS, β-octyl glucoside, laurylmaltoside, N-lauroylsarcosine, and hexadecyltrimethylammonium bromide. Table A represents the helicase activity of NS3 in the presence of LDAO and at least one additional detergent; and, in the absence of LDAO and the presence of at least one other detergent.

[1] = plus LDAO 0.6 mM, detergent 0.05 mM
[2] = plus LDAO 0.6 mM, detergent 0.05 mM, control = 100
[3] = plus LDAO 0.6 mM, detergent 0.2 mM
[4] = plus LDAO 0.6 mM, detergent 0.2 mM, control = 100
[5] = plus LDAO 0.6 mM, detergent 0.020%
[6] = plus LDAO 0.6 mM, detergent 0.020%, control = 100
[7] = plus LDAO 0.6 mM, detergent 0.075%
[8] = plus LDAO 0.6 mM, detergent 0.075%, control = 100

O[C@@H](CS)[C@@H](O)CS [DTT] was tested, and the “Conclusion (effect of additive on NS3/4a protease reaction rate)” value (“Conclusion” below) (HCV NS3/4a protease) was 10 and 30 mM DTT improve activity.
For “NS3 enzyme, benchmark wild-type full length enzyme derived from HCV genotype 1b-K2040”, the “NS3/4a protease activity (reaction rate of NS3 catalyzed hydrolysis of 0.5 µM FRET substrate)” value (NS4a surrogate peptide) was “Best activity at 25 and 2500 µM”.
CCCCCCCCCCCCO[C@@H]1O[C@H](CO)[C@@H](O[C@H]2O[C@H](CO)[C@@H](O)[C@H](O)[C@H]2O)[C@H](O)[C@H]1O [laurylmaltoside] gave a Slope (NS3 Helicase; [1]) of −0.8 mP/min, an Activity (NS3 Helicase; [2]) of 131% and a Slope (NS3 Helicase; [3]) of −1.23 mP/min. It also gave an Activity (NS3 Helicase; [4]) of 202%.
With CCCCCCCCO[C@@H]1O[C@H](CO)[C@@H](O)[C@H](O)[C@H]1O [β-octyl glucoside] the Slope (NS3 Helicase; [5]) was −0.45 mP/min, the Activity (NS3 Helicase; [6]) was 74% and the Slope (NS3 Helicase; [7]) was −0.38 mP/min. It also gave an Activity (NS3 Helicase; [8]) of 62%.
In the case of “KGSVVIVGRIILSGRK [NS4a peptide, "The NS4a surrogate peptide used (…) was obtained from Midwest Biotech", reference compound]”, the “Conclusion” value (HCV NS3/4a protease) is reported as “Best activity at 25 and 2500 μM”.
With O=C(O)CCP(CCC(=O)O)CCC(=O)O [TCEP] the “Conclusion” value (HCV NS3/4a protease) was “detrimental to activity”.
C[C@H](CCC(=O)NCCC[N+](C)(C)CCCS(=O)(=O)[O-])[C@H]1CC[C@H]2[C@@H]3[C@H](O)C[C@@H]4C[C@H](O)CC[C@]4(C)[C@H]3C[C@H](O)[C@]12C [CHAPS] showed a Slope (NS3 Helicase; [5]) of −0.77 mP/min, an Activity (NS3 Helicase; [6]) of 126% and a Slope (NS3 Helicase; [7]) of −1.16 mP/min. For the same compound, the Activity (NS3 Helicase; [8]) was 190% and the “Conclusion” value (HCV NS3/4a protease) was “CHAPS at 2 mM increased activity”.
Work on Triton X100 yielded an Activity (NS3 Helicase; no LDAO, detergent 0.020%) of 66%, a Slope (NS3 Helicase; no LDAO, detergent 0.020%) of −0.25 mP/min and an Activity (NS3 Helicase; no LDAO, detergent 0.075%) of 53%. For the same compound, the Slope (NS3 Helicase; no LDAO, detergent 0.075%) was −0.2 mP/min, the Slope (NS3 Helicase; [5]) was −1.51 mP/min and the Activity (NS3 Helicase; [6]) was 397%. For the same compound, the Slope (NS3 Helicase; [7]) was −1.19 mP/min and the Activity (NS3 Helicase; [8]) was 313%.
CCCCCCCCCCCCCCCC[N+](C)(C)C.[Br-] [hexadecyltrimethylammonium bromide] was tested, and the Slope (NS3 Helicase; [1]) was 0.24 mP/min, the Activity (NS3 Helicase; [2]) was −39% and the Slope (NS3 Helicase; [3]) was 0.74 mP/min. The Activity (NS3 Helicase; [4]) was −121%.
CCCCCCCCCCCC(=O)N(C)CC(=O)O [N-lauroylsarcosine] gave a Slope (NS3 Helicase; [1]) of −0.53 mP/min, an Activity (NS3 Helicase; [2]) of 87% and a Slope (NS3 Helicase; [3]) of −0.28 mP/min. For the same compound, the Activity (NS3 Helicase; [4]) was 46%.
Pluronic F127 showed an Activity (NS3 Helicase; no LDAO, detergent 0.020%) of 126%, a Slope (NS3 Helicase; no LDAO, detergent 0.020%) of −0.48 mP/min and an Activity (NS3 Helicase; no LDAO, detergent 0.075%) of 155%. For the same compound, the Slope (NS3 Helicase; no LDAO, detergent 0.075%) was −0.59 mP/min, the Slope (NS3 Helicase; [5]) was −1.14 mP/min and the Activity (NS3 Helicase; [6]) was 300%. It also gave a Slope (NS3 Helicase; [7]) of −1.29 mP/min and an Activity (NS3 Helicase; [8]) of 339%.
CCCCCCCCCCCC[N+](C)(C)[O-] [LDAO, lauryl (dimethyl)-amine oxide] was tested, and the “Conclusion” value (HCV NS3/4a protease) was “LDAO at 0.6 mM raised activity” and the “Increase of NS3/4a protease activity” value (HCV NS3/4a protease; LDAO at 0.6 mM) was “significantly (~10-fold)”.
For Triton X-100, the “Conclusion” value (HCV NS3/4a protease) was “Improvement in activity at 12 μM”.
With [Cl-].[Na+] [NaCl] the “Conclusion” value (HCV NS3/4a protease) was “NaCl detrimental to activity”.
